Data taken from patent US20030104507A1, “Method for detection of ATP” (priority 2001, published 2003).

How the values were obtained:
LucPpy = target: T1, LucPpy (Photinus pyralis, UniProt P08659); assay: Stability of reagent composition with LucPpy and detergent (RT, pH 7.0); format: biochemical; conditions: for Average Relative Light Units / Percent of Luminescence Remaining: LucPpy
T1 construct: purchased Promega E170A
Text: (§1) The detergents used for inhibition of endogenous ATPase activity in a sample also affect activity of luciferase. […] It is ultimately the extended stability of a reagent composition, comprising an ATPase inhibitor and a luciferase enzyme, which provides a composition useful for measuring ATP, in a sample or samples, over an extended period of time.
(§2) In this experiment, the stability of a reagent composition comprising wild type LucPpy was compared to the stability of a reagent composition comprising LucPpe2m146 at about 23° C. (room temperature). The various reagent compositions had varying detergent concentrations.
(§3) Two solutions were created as listed below. One contained the luciferase, luciferin, MgSO4, and buffer (reagent composition). The other solution contained media plus ATP (media solution).
(§4) 50 μg/ml enzyme (LucPpy is Promega catalog #E170A)
(§5) Detergent (at various concentrations, see table below)
(§6) For each reagent composition, all ingredients except the luciferase enzyme were assembled; the enzyme was then added immediately before the first luminescence reading was taken. Immediately after addition of enzyme to each reagent composition and for various timepoints thereafter, 100 μl aliquots of the reagent composition were added to wells of a 96-well microtitre luminometer plate in triplicate. To these were added 100 μl Media Solution containing the ATP. Luminescence was then immediately read on a Dynex MLX microtitreplate luminometer, 0.5 second reads per well. The average relative light unit values as well as the reaction half lives are listed below in Table I and the percent of original luminescence remaining at each timepoint is listed in Table J below. The timepoint at the top of the column indicates the time at which the first rlu measurement for the samples in that column was read. […] Times listed in Table I are the same for Table J. The values for sulfobetaine and for CTAB were generated on different days, they are presented with the control values generated in the same experiment.

LucPpe2m146 = assay: Stability of reagent composition with LucPpe2m146 and detergent (RT, pH 7.0); format: biochemical, Photuris pennsylvanica
Text: as §1, §2, §3, §4, §5, §6

CCCCCCCCCCCC[N+](C)(C)CCCS(=O)(=O)[O-] [Sulfobetaine 3-10, N-Dodecyl-N,N-dimethyl-3-ammonio-1-propanesulfonate]
Half-life of Luminescence Activity (LucPpy; Common firefly luciferase (P. pyralis), conc. 0.500): no activity | Average Relative Light Units (LucPpy; 0.1%, 0.75 min (head r12)): 3291.41 rlu | Percent of Luminescence Remaining (LucPpy; 0.1%, 0.75 min (times of Table I r12)): 100.00% | Average Relative Light Units (LucPpy; 0.1%, 7.5 min (head r12)): 3178.07 rlu | Percent of Luminescence Remaining (LucPpy; 0.1%, 7.5 min (times of Table I r12)): 95.8% | Average Relative Light Units (LucPpy; 0.1%, 20.5 min (head r12)): 3262.17 rlu | Percent of Luminescence Remaining (LucPpy; 0.1%, 20.5 min (times of Table I r12)): 99.1% | Average Relative Light Units (LucPpy; 0.1%, 59 min (head r12)): 3074.49 rlu | Percent of Luminescence Remaining (LucPpy; 0.1%, 59 min (times of Table I r12)): 93.4% | Average Relative Light Units (LucPpy; 0.1%, 90 min (head r12)): 3066.29 rlu | Percent of Luminescence Remaining (LucPpy; 0.1%, 90 min (times of Table I r12)): 93. % | Average Relative Light Units (LucPpy; 0.5%, 0.75 min (head r12)): 737.788 rlu | Percent of Luminescence Remaining (LucPpy; 0.5%, 0.75 min (times of Table I r12)): 100.00% | Average Relative Light Units (LucPpy; 0.5%, 7.5 min (head r12)): 0.084 rlu | Average Relative Light Units (LucPpy; 0.5%, 20.5 min (head r12)): 0.037 rlu | Average Relative Light Units (LucPpy; 1.0%, 0.75 min (head r12)): 0.024 rlu | Average Relative Light Units (LucPpy; 1.0%, 7.5 min (head r12)): 0.000 rlu | Average Relative Light Units (LucPpe2m146; LucPpe2m146, 0.1%, 0.75 min (head r48)): 16648.3 rlu | Percent of Luminescence Remaining (LucPpe2m146; LucPpe2m146, 0.1%, 0.75 min (times of Table I r48)): 100.00% | Average Relative Light Units (LucPpe2m146; LucPpe2m146, 0.1%, 30 min (head r48)): 17003.0 rlu | Percent of Luminescence Remaining (LucPpe2m146; LucPpe2m146, 0.1%, 30 min (times of Table I r48)): 102.1% | Average Relative Light Units (LucPpe2m146; LucPpe2m146, 0.1%, 66 min (head r48)): 17849.8 rlu | Percent of Luminescence Remaining (LucPpe2m146; LucPpe2m146, 0.1%, 66 min (times of Table I r48)): 107.2% | Average Relative Light Units (LucPpe2m146; LucPpe2m146, 0.1%, 123 min (head r48)): 16610.13 rlu | Percent of Luminescence Remaining (LucPpe2m146; LucPpe2m146, 0.1%, 123 min (times of Table I r48)): 99.8% | Average Relative Light Units (LucPpe2m146; LucPpe2m146, 0.1%, 180 min (head r48)): 17115.63 rlu | Percent of Luminescence Remaining (LucPpe2m146; LucPpe2m146, 0.1%, 180 min (times of Table I r48)): 102.8% | Average Relative Light Units (LucPpe2m146; LucPpe2m146, 0.1%, 238 min (head r48)): 18131.37 rlu | Percent of Luminescence Remaining (LucPpe2m146; LucPpe2m146, 0.1%, 238 min (times of Table I r48)): 108.9% | Average Relative Light Units (LucPpe2m146; LucPpe2m146, 0.5%, 0.75 min (head r48)): 13447.0 rlu | Percent of Luminescence Remaining (LucPpe2m146; LucPpe2m146, 0.5%, 0.75 min (times of Table I r48)): 100.00% | Average Relative Light Units (LucPpe2m146; LucPpe2m146, 0.5%, 30 min (head r48)): 13597.97 rlu | Percent of Luminescence Remaining (LucPpe2m146; LucPpe2m146, 0.5%, 30 min (times of Table I r48)): 101.1% | Average Relative Light Units (LucPpe2m146; LucPpe2m146, 0.5%, 66 min (head r48)): 14186.93 rlu | Percent of Luminescence Remaining (LucPpe2m146; LucPpe2m146, 0.5%, 66 min (times of Table I r48)): 105.5% | Average Relative Light Units (LucPpe2m146; LucPpe2m146, 0.5%, 123 min (head r48)): 12982.20 rlu | Percent of Luminescence Remaining (LucPpe2m146; LucPpe2m146, 0.5%, 123 min (times of Table I r48)): 96.5% | Average Relative Light Units (LucPpe2m146; LucPpe2m146, 0.5%, 180 min (head r48)): 14348.90 rlu | Percent of Luminescence Remaining (LucPpe2m146; LucPpe2m146, 0.5%, 180 min (times of Table I r48)): 106.7% | Average Relative Light Units (LucPpe2m146; LucPpe2m146, 0.5%, 238 min (head r48)): 13958.2 rlu | Percent of Luminescence Remaining (LucPpe2m146; LucPpe2m146, 0.5%, 238 min (times of Table I r48)): 103.8% | Average Relative Light Units (LucPpe2m146; LucPpe2m146, 1.0%, 0.75 min (head r48)): 16897.5 rlu | Percent of Luminescence Remaining (LucPpe2m146; LucPpe2m146, 1.0%, 0.75 min (times of Table I r48)): 100.00% | Average Relative Light Units (LucPpe2m146; LucPpe2m146, 1.0%, 30 min (head r48)): 16754.97 rlu | Percent of Luminescence Remaining (LucPpe2m146; LucPpe2m146, 1.0%, 30 min (times of Table I r48)): 102.0% | Average Relative Light Units (LucPpe2m146; LucPpe2m146, 1.0%, 66 min (head r48)): 7036.0 rlu | Percent of Luminescence Remaining (LucPpe2m146; LucPpe2m146, 1.0%, 66 min (times of Table I r48)): 106.0% | Average Relative Light Units (LucPpe2m146; LucPpe2m146, 1.0%, 123 min (head r48)): 6653.67 rlu | Percent of Luminescence Remaining (LucPpe2m146; LucPpe2m146, 1.0%, 123 min (times of Table I r48)): 100.3% | Average Relative Light Units (LucPpe2m146; LucPpe2m146, 1.0%, 180 min (head r48)): 7358.44 rlu | Percent of Luminescence Remaining (LucPpe2m146; LucPpe2m146, 1.0%, 180 min (times of Table I r48)): 110.9% | Average Relative Light Units (LucPpe2m146; LucPpe2m146, 1.0%, 238 min (head r48)): 6948.05 rlu | Percent of Luminescence Remaining (LucPpe2m146; LucPpe2m146, 1.0%, 238 min (times of Table I r48)): 104.7%
